Laboratory results taken from PubChem BioAssay (NCI).
“And” between values parts separate entries of the source, which are not always exact repeats. Identical values can stand only once.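 Assay format: 96-well plates, 48-hour exposure. GI50: concentration for 50% inhibition of growth. TGI is the concentration that stops growth completely.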

Legend:
Assay in all cases: DTP human tumour cell line panel, 48 h
MCF7 breast = tested on: MCF7 breast
CCRF-CEM leukemia = tested on: CCRF-CEM leukemia
IGROV1 ovarian = tested on: IGROV1 ovarian
HCT-116 colon = tested on: HCT-116 colon
HOP-92 NSCLC = tested on: HOP-92 NSCLC
MDA-MB-231 breast = tested on: MDA-MB-231 breast
DU-145 prostate = tested on: DU-145 prostate
HCT-15 colon = tested on: HCT-15 colon
HT29 colon = tested on: HT29 colon
HL-60(TB) leukemia = tested on: HL-60(TB) leukemia

| Structure (SMILES) | GI50 (MCF7 breast) | TGI (MCF7 breast) | GI50 (CCRF-CEM leukemia) | TGI (CCRF-CEM leukemia) | GI50 (IGROV1 ovarian) | TGI (IGROV1 ovarian) | GI50 (HCT-116 colon) | TGI (HCT-116 colon) | GI50 (HOP-92 NSCLC) | TGI (HOP-92 NSCLC) | GI50 (MDA-MB-231 breast) | TGI (MDA-MB-231 breast) | GI50 (DU-145 prostate) | TGI (DU-145 prostate) | GI50 (HCT-15 colon) | TGI (HCT-15 colon) | GI50 (HT29 colon) | TGI (HT29 colon) | GI50 (HL-60(TB) leukemia) | TGI (HL-60(TB) leukemia) |
| --- | --- | --- | --- | --- | --- | --- | --- | --- | --- | --- | --- | --- | --- | --- | --- | --- | --- | --- | --- | --- |
| O=C(CCSc1ccnc2c(C(F)(F)F)cccc12)N/N=C/c1cc(Cl)c(Cl)cc1Cl | 22.9 µM | 44 µM | 25.4 µM | 62.1 µM | 18.8 µM | 40.7 µM | 18.5 µM | 32.5 µM | 16.3 µM | 34.3 µM | 16.8 µM | 32.6 µM | 18.2 µM | 40 µM | 20 µM | 36.5 µM | 17.8 µM | 33.9 µM | 32.2 µM | 58 µM |
| Cc1nc2c(N3CCCC3)nc(N3CCNCC3)nc2nc1NCc1ccccc1 | 5.99 µM | 13.3 µM and 5.92 µM | 4.65 µM | 11 µM and 6.27 µM | 4.49 µM | 9.84 µM and 15.1 µM | 3.96 µM | 13.4 µM and 11.3 µM | – | 7.83 µM and 13.7 µM | 5.67 µM | 12.1 µM and 10.1 µM | 5.35 µM | 19.4 µM and 21.3 µM | 4.17 µM | 8.9 µM and 4.53 µM | 1.95 µM | 8.36 µM and 11.7 µM | 4.71 µM | 13.2 µM and 11.8 µM |
| O=C(COc1cccc(/C=C2\Oc3ccc4ccccc4c3C2=O)c1)c1ccc(Cl)cc1 | 10.7 µM | 22.6 µM | 2.92 µM | 8.39 µM | 0.246 µM | 9.14 µM | 2.97 µM | 10.5 µM | > 100 µM | > 100 µM | 43.5 µM | > 100 µM | 39.6 µM | > 100 µM | 33 µM | > 100 µM | > 100 µM | > 100 µM | 16.1 µM | 90.9 µM |
| CCOC(=O)C(C(=O)OCC)C(=O)c1ccccc1C(=O)c1ccccc1 | – | > 100 µM | – | > 100 µM | – | > 100 µM | – | > 100 µM | – | > 100 µM | – | > 100 µM | – | > 100 µM | – | > 100 µM | – | > 100 µM | – | > 100 µM |
| CC(C)C[C@H](NC(=O)CCn1ccc2ncccc2c1=O)B(O)O | 3.88 µM | > 100 µM | 0.308 µM | > 26.5 µM | 36.5 µM | > 94.3 µM | 3.64 µM | 19 µM | 14.5 µM | 60.3 µM | 9.73 µM | 46.6 µM | 19.6 µM | > 100 µM | 28.1 µM | > 100 µM | 6.28 µM | > 100 µM | 6.88 µM | > 100 µM |
| Cc1ncc(C(=O)Nc2ccc(CN3CCN(C)CC3)c(C(F)(F)F)c2)cc1C#Cc1c(N)ncc2ccccc12 | 0.378 µM | 0.913 µM | 0.494 µM | 1.35 µM | 0.208 µM | 0.823 µM | 0.159 µM | 0.62 µM | 0.0535 µM | 0.505 µM | 0.163 µM | 0.65 µM | 0.502 µM | 0.997 µM | 0.382 µM | 0.873 µM | 0.0978 µM | 0.585 µM | 0.247 µM | 0.817 µM |
| COc1cc(F)c(/C=C/c2cc(/C=C/c3cc(OC)c(OC)cc3F)n(-c3cc(F)cc(F)c3)n2)cc1OC | 2.99 µM | 17.3 µM | 37.5 µM | > 100 µM | 4.73 µM | 21.1 µM | 3.13 µM | 13.1 µM | 6 µM | 21.5 µM | 2.62 µM | 8.86 µM | 3.68 µM | 18.1 µM | 2.84 µM | 9.05 µM | 2.27 µM | 6.81 µM | > 100 µM | > 100 µM |
| CCOc1nccc2c1nc(-c1nonc1N)n2CC | > 25 µM | > 25 µM | > 25 µM | > 25 µM | > 25 µM | > 25 µM | > 25 µM | > 25 µM | 1.17 µM | > 25 µM | > 25 µM | > 25 µM | > 25 µM | > 25 µM | > 25 µM | > 25 µM | > 25 µM | > 25 µM | > 25 µM | > 25 µM |
| COc1cccc(N=N/C(=N\NC(=O)c2cc(Br)ccc2O)c2ccc(N(CCC#N)CCC#N)cc2OC)c1 | 43.7 µg/mL | > 150 µg/mL | 53.7 µg/mL | > 150 µg/mL | 53.7 µg/mL | > 150 µg/mL | 46.4 µg/mL | > 150 µg/mL | 116 µg/mL | > 150 µg/mL | 71.9 µg/mL | > 150 µg/mL | 87.2 µg/mL | > 150 µg/mL | 52 µg/mL | > 150 µg/mL | 30 µg/mL | > 150 µg/mL | 15 µg/mL | 15 µg/mL |
| O=C(N/N=C/c1ccc(Cl)cc1Cl)c1ccc2nc(-c3ccc(Cl)cc3)[nH]c2c1 | 1.15 µM | 2.56 µM | 1.43 µM | 9.03 µM | 1.5 µM | 2.98 µM | 1.45 µM | 3.51 µM | 1.67 µM | 3.53 µM | 1.85 µM | 3.77 µM | 1.76 µM | 3.44 µM | 1.42 µM | 3.03 µM | 1.97 µM | 5.47 µM | 1.85 µM | 6.53 µM |
| Clc1cc(-c2ccccc2)nc2ccccc12 | – | > 100 µM | – | 54.1 µM | – | > 100 µM | – | > 100 µM | – | > 100 µM | – | > 100 µM | – | > 100 µM | – | 36.5 µM | – | > 100 µM | – | 53.3 µM |
| COc1cccc(CCC(=O)c2cc3c(N)c(C(=O)Nc4cccc(Cl)c4C)sc3nc2C)c1 | 0.336 µM | > 100 µM | 0.437 µM | > 100 µM | 0.628 µM | > 100 µM | 0.448 µM | > 100 µM | 0.753 µM | > 100 µM | 1.4 µM | > 78.6 µM | 1.91 µM | > 100 µM | 0.433 µM | > 100 µM | 0.338 µM | – | 0.543 µM | > 100 µM |
| CC(C)C[C@H](NC(=O)[C@@H](NC(=O)c1cccc(-c2ccccc2)n1)[C@@H](C)O)B(O)O | 0.00425 µM | 36.8 µM | – | > 5.16 µM | 0.0256 µM and 0.0229 µM | 0.171 µM | 0.00344 µM | 0.0142 µM and 0.0127 µM | 0.0209 µM | 0.119 µM | 0.00485 µM and 0.0191 µM | – | 0.0077 µM | 1.81 µM | 0.0176 µM and < 0.0182 µM | 0.107 µM | 0.00396 µM | 0.0233 µM and 0.046 µM | 0.00379 µM and 0.0101 µM | 0.162 µM and 0.0287 µM |
| O=C(CNc1ccc2c(=S)c3ccccc3[nH]c2c1)Nc1ccccc1-c1ccccc1NC(=O)CNc1ccc2c(=S)c3ccccc3[nH]c2c1 | – | > 52.7 µM | – | 22.8 µM | – | 61 µM | – | 43.3 µM | – | 51.2 µM | – | > 51.7 µM | – | 37.4 µM | – | 49.5 µM | – | 48.4 µM | – | 13.4 µM |
| Nc1ccc(C(OC(=O)c2cc3ccccc3c(Cc3c(O)c(C(=O)OC(c4ccc(N)cc4)(c4ccc(N)cc4)c4ccc(N)cc4)cc4ccccc34)c2O)(c2ccc(N)cc2)c2ccc(N)cc2)cc1 | 0.623 µM | 12.4 µM | 3.03 µM | > 100 µM | 9.89 µM | 85 µM | 0.784 µM | 11.4 µM | 1.15 µM | 5.86 µM | 2.8 µM | 8.76 µM | 2.18 µM | 15 µM | 4.01 µM | > 100 µM | 1.79 µM | 11.6 µM | 4.04 µM | 23.3 µM |
| C[C@@H](COCCC(=O)N1CCN(c2ncc(C(F)(F)F)cn2)CC1)Nc1cn[nH]c(=O)c1C(F)(F)F | 31.2 µM | > 100 µM | 15 µM | > 100 µM | 42.2 µM | > 100 µM | 40.3 µM | > 100 µM | 0.323 µM | > 65.7 µM | > 100 µM | > 100 µM | 37.6 µM | > 100 µM | > 100 µM | > 100 µM | > 100 µM | > 100 µM | 16.1 µM | > 100 µM |
| Cn1cnc2c(F)c(Nc3ccc(Br)cc3F)c(C(=O)NOCCO)cc21 | > 100 µM | > 100 µM | > 100 µM | > 100 µM | – | > 100 µM | 0.203 µM and 0.317 µM | > 100 µM | 0.0606 µM and 0.11 µM | 1.9 µM and 2.01 µM | 0.111 µM and 0.837 µM | > 100 µM | 51.1 µM | > 100 µM | 57.5 µM | > 100 µM | 0.0263 µM and 0.0316 µM | > 100 µM | 0.0193 µM and 0.0192 µM | > 100 µM |
| CN1C[C@@H]2Cn3c(c(C4=C(c5cn(C)c6ccccc56)C(=O)NC4=O)c4ccccc43)C[C@H]2C1 | 3.6 µM and 3.15 µM | 8.7 µM and 9.66 µM | 2.13 µM and 5.69 µM | 11.7 µM and 17.6 µM | 5.73 µM and 6.57 µM | 11 µM and 15 µM | 4.2 µM and 3.02 µM | 9.66 µM and 8.22 µM | 6.76 µM | 12.7 µM | 4.37 µM and 4.1 µM | 8.85 µM and 9.22 µM | 6.27 µM and 5.46 µM | 16.3 µM and 14.7 µM | 4.41 µM and 3.58 µM | 13.1 µM and 10.9 µM | 3.87 µM and 3.22 µM | 10.8 µM and 11.6 µM | 5.48 µM and 3.63 µM | 10.5 µM and 8.53 µM |
| CC1(C)CC([P+](c2ccccc2)(c2ccccc2)c2ccccc2)=NN1 | 2.46 µM | > 100 µM | 8.36 µM | > 100 µM | 6.47 µM | > 100 µM | 3.04 µM | > 100 µM | 3.75 µM | 71.9 µM | 13.7 µM | > 100 µM | 4.34 µM | > 100 µM | > 100 µM | > 100 µM | 3.29 µM | > 100 µM | 1.91 µM | 9.19 µM |
